Results published in patent US20100190849A1, “Novel Clerodanes and Methods for Repelling Arthropods” (priority 2006, published 2010).
Marks after values point to notes of the source that are not given here.

How the values were obtained:
Aedes aegypti [1] = test: K & D module mosquito anti-biting (repellent) bioassay; format: in vivo
Description: Insects: Ae. aegypti(L.) (red eye Liverpool strain) and An. stephensi Liston used in the study were from colonies maintained at the Walter Reed Army Institute of Research, Silver Spring, Md. […] Adults were maintained in a photoperiod of 12:12 (L:D) h at 27° C. and 80% RH with cotton pads moistened with 10% aqueous sucrose solution. Mated females were 5-15 d old when they were used in bioassays. Ae. aegypti females had access only to water 24 h and neither food nor water for another 24 h before testing. An. stephensi females were provided with water alone 24 h before testing.
Routinely, a six-celled K & D module containing five mosquitoes/cell was positioned over cloth treatments covering the six blood-membrane wells, and trap doors of the K&D modules were opened to expose the treatments to the sets of mosquitoes. After a 3 minute exposure, the number of mosquitoes biting through cloth treatments in each cell was recorded and mosquitoes were prodded back into the cells. […] Experiments were replicated 12, 18, 32, or 56 times. Thus, 60, 90, 160. or 280 mosquitoes were tested against each treatment depending on the experiment, and the proportion of mosquitoes not biting for each treatment was calculated. For each experiment, conducted in different time periods, logistic regression was used to make two sets of one degree-of-freedom contrasts (t-tests): treatments vs. control and treatments vs. SS220 for anti-biting activity within each experiment. The level of significance was set at P=0.05. In all, we conducted 8 biological experiments, and all experiments used Ae. aegypti as the test mosquito with exception of Experiment 7 which used An. stephensi.
Each experiment was replicated 18 times.
Experiments 3, 4, and 5: In each of these experiments, chromatographic fractions of essential oil at their respective percentage compositions of 100 μg essential oil/cm^2 cloth, 100 μg unfractionated essential oil/cm^2 cloth, 25 nmol SS-220/cm^2 cloth and control were compared for mosquito anti-biting activity. Each experiment was replicated 18 times.
(§1) Experiments 6 and 7: These experiments compared the anti-biting activities of SS-220, and plant-isolated callicarpenal, humulene epoxide II, intermedeol and spathulenol at 25 nmol compound/cm^2 cloth versus control against Ae. aegypti and An. stephensi, respectively. Experiment 6 was replicated 32 times and 7 had 56 replicates
The percentage composition of the mixture was a normalized percentage of active components in C. japonica essential oil based upon GC-MS analysis total ion Area % analysis based on largest peaks. Other treatments in the experiment were SS220, callicarpenal, intermedeol, and spathulenol each at 25 nmol/cm^2 cloth versus control.

Aedes aegypti [2] = test: Total mosquito toxic knockdown after K & D module exposure (Experiment 8); format: in vivo; conditions: Exp. 8, 25 nmol/cm^2 cloth; for Total Knock down 6 min: dead mosquitoes 6 min post-treatment exposure; for Total knock down 1 hr: dead mosquitoes 1 hr post-treatment exposure; for Total knock down 24 hr: dead mosquitoes 24 hr post-treatment exposure
Excerpt: (§2) Plant extracts, fractions, or isolated pure plant derived compounds in 95% ethanol solution were each randomly applied to six-4×5 cm areas of organdy cloth and positioned over the membrane-covered blood. A replicate consisted of six treatments: four test chemicals or extract fractions, 95% ethanol treated cloth as control and unfractionated plant extract or a standard repellent compound, (1S, 2′S)-2-methylpiperidinyl-3-cyclohexen-1-carboxamide (SS220) at 25 nmol/cm^2 cloth. The 25 nmol SS220/cm^2 cloth dose was used as a standard, because it was known from human volunteer and in vitro assays to consistently suppress mosquito biting by 80% or more compared to controls in replicated assays (Klun, J. A., et al., Journal of the American Mosquito Control Association, 21: 64-70 (2005)). […] Routinely, a six-celled K & D module containing five mosquitoes/cell was positioned over cloth treatments covering the six blood-membrane wells, and trap doors of the K&D modules were opened to expose the treatments to the sets of mosquitoes. After a 3 minute exposure, the number of mosquitoes biting through cloth treatments in each cell was recorded and mosquitoes were prodded back into the cells. In Experiment 8, we retained all mosquitoes in their respective K&D module cells, each fitted with a water-moist piece of cotton, and observed the mosquitoes for total mosquito toxic knockdown at 6 min, 1 hr, and 24 hr post-treatment exposure. Experiments were replicated 12, 18, 32, or 56 times. Thus, 60, 90, 160. or 280 mosquitoes were tested against each treatment depending on the experiment, and the proportion of mosquitoes not biting for each treatment was calculated. For each experiment, conducted in different time periods, logistic regression was used to make two sets of one degree-of-freedom contrasts (t-tests): treatments vs. control and treatments vs. SS220 for anti-biting activity within each experiment. The level of significance was set at P=0.05. In all, we conducted 8 biological experiments, and all experiments used Ae. aegypti as the test mosquito with exception of Experiment 7 which used An. stephensi.
Experiment 8: This experiment (12 replicates) compared the antibiting activities of a mixture (25 nmol/cm^2 cloth) of 11.5% callicarpenal, 47.1% intermedeol, and 41.4% spathulenol. The percentage composition of the mixture was a normalized percentage of active components in C. japonica essential oil based upon GC-MS analysis total ion Area % analysis based on largest peaks. Other treatments in the experiment were SS220, callicarpenal, intermedeol, and spathulenol each at 25 nmol/cm^2 cloth versus control. In addition to measurement of anti-biting activity, the number of dead mosquitoes observed at three time intervals were recorded for the six treatments.

Aedes aegypti [3] = conditions: in vivo; cited from earlier work
An. stephensi = conditions: in vivo; cited from earlier work
Anopheles stephensi = test: K & D module mosquito anti-biting (repellent) bioassay; format: in vivo; conditions: 25 nmol compound/cm^2 cloth; for Proportion Not Biting: Exp. 7, 56 replicates; for repellent activity (in words): Experiment 7
Excerpt: Insects: Ae. aegypti(L.) (red eye Liverpool strain) and An. stephensi Liston used in the study were from colonies maintained at the Walter Reed Army Institute of Research, Silver Spring, Md. The insects were reared by feeding larvae ground tropical fish flakes (Tetramin Tropical Fish Flakes, Tetra Sales, Blacksburg, Va., www.tetra-fish.com)(Gerberg, E. j., et al., Manual for mosquito rearing and experimental techniques. Amer. Mosq. Control Assoc. Bull. No. 5 (revised), 1994, AMCA. inc., Lake Charles, La.). Adults were maintained in a photoperiod of 12:12 (L:D) h at 27° C. and 80% RH with cotton pads moistened with 10% aqueous sucrose solution. Mated females were 5-15 d old when they were used in bioassays. Ae. aegypti females had access only to water 24 h and neither food nor water for another 24 h before testing. An. stephensi females were provided with water alone 24 h before testing.
Mosquito Bioassay Methods: Experiment were conducted by using, a six-celled in vitro Klun & Debboun (K & D) module bioassay system developed by klun et al. (Klum J. A., et al., Journal of the American Mosquito Control Association. 21: 64-70 (2005)) for quantitative, evaluation of mosquito-repellent (anti-biting) properties of candidate repellent compounds for human use.
as §2, §1

mosquito = conditions: 25 nmol SS220/cm^2 cloth; replicated assays; cited from earlier work
[4] = Table 7, Example 2, synthetic compounds, dose not given
[5] = Exp. 6, 25 nmol compound/cm^2 cloth, 32 replicates
[6] = Exp. 8, 25 nmol/cm^2 cloth, 12 replicates
[7] = Experiment 6, 25 nmol compound/cm^2 cloth
[8] = Table 8, Example 3, synthetic compounds, dose not given

In the case of `CC1=CCC[C@@H]2[C@@](C)(CCO)[C@H](C)CC[C@@]12C` [13,14,15,16-tetranorclerod-3-en-12-ol], the “biting deterrent efficacy (in words)” value (Aedes aegypti [1]; Example 2, Table 7) is reported as “equivalent to both callicarpenal and picaridin” and the “Proportion Not Biting” value (Aedes aegypti [1]; [4]) is reported as 0.68^b.

With `C[C@H]1CCCCN1C(=O)[C@@H]1CC=CCC1` [SS220, (1S, 2′S)-2-methylpiperidinyl-3-cyclohexen-1-carboxamide, reference compound] the “Total Knock down 6 min” value (Aedes aegypti [2]) was 0, the “Total knock down 1 hr” value (Aedes aegypti [2]) was 1 and the “Total knock down 24 hr” value (Aedes aegypti [2]) was 2. For the same compound, the “repellent activity compared with bench mark repellents (in words)” value (Aedes aegypti [3]) was “more effective than Bayrepel”, the “repellent activity compared with bench mark repellents (in words)” value (An. stephensi) was “equivalent to bench mark repellent compounds Deet and Bayrepel” and the “Proportion Not Biting” value (Anopheles stephensi) was 0.78^c. The “Proportion Not Biting” value (Aedes aegypti [1]; Exp. 1, 25 nmole/cm^2 cloth, 3 minute exposure) was 0.81^c, the “Proportion Not Biting” value (Aedes aegypti [1]; Exp. 2, 25 nmole/cm^2 cloth) was 0.90^c and the “Proportion Not Biting” value (Aedes aegypti [1]; Exp. 3, 25 nmole/cm^2) was 1.00^c. For the same compound, the “Proportion Not Biting” value (Aedes aegypti [1]; Exp. 4, 25 nmole/cm^2) was 0.92^c, the “Proportion Not Biting” value (Aedes aegypti [1]; Exp. 5, 25 nmole/cm^2) was 0.95^c and the “Proportion Not Biting” value (Aedes aegypti [1]; [5]) was 0.80^c. For the same compound, the “Proportion Not Biting” value (Aedes aegypti [1]; [6]) was 0.67^c and the “suppression of mosquito biting compared to controls” value (mosquito) was at least 80%.

With `C/C1=C\CC(C)(C)/C=C/C[C@@]2(C)O[C@@H]2CC1` [humulene epoxide II] the “Proportion Not Biting” value (Anopheles stephensi) was 0.58^a, the “repellent activity (in words)” value (Anopheles stephensi) was “not different from the control” and the “Proportion Not Biting” value (Aedes aegypti [1]; [5]) was 0.48^a. For the same compound, the “repellent activity (in words)” value (Aedes aegypti [1]; [7]) was “no repellent activity”.

With `CCC(C)OC(=O)N1CCCCC1CCO` (stereo not shown) [picaridin, 2-(2-hydroxyethyl)-1piperidinecarboxylic acid 1-methylpropyl ester, reference compound] the “Proportion Not Biting” value (Aedes aegypti [1]; [4]) was 0.62^b.

With `C=C1CC[C@@H]2[C@H]([C@H]3[C@H]1CC[C@]3(C)O)C2(C)C` [spathulenol, (1R,4S,5R,6R,7R)-aromadendr-10(14)-en-4-ol] the “Total Knock down 6 min” value (Aedes aegypti [2]) was 1, the “Total knock down 1 hr” value (Aedes aegypti [2]) was 2 and the “Total knock down 24 hr” value (Aedes aegypti [2]) was 0. For the same compound, the “Proportion Not Biting” value (Anopheles stephensi) was 0.75^c, the “repellent activity (in words)” value (Anopheles stephensi) was “as effective as SS220” and the “Proportion Not Biting” value (Aedes aegypti [1]; [5]) was 0.73^c. For the same compound, the “Proportion Not Biting” value (Aedes aegypti [1]; [6]) was 0.48^b, the “repellent activity (in words)” value (Aedes aegypti [1]; [7]) was “equally active” and the “repellent activity (in words)” value (Aedes aegypti [1]; Experiment 8, 25 nmol/cm^2 cloth) was “significantly different from the control”.

In the case of `C[C@@H]1CC[C@]2(C)[C@H](CC[C@@H]3O[C@@]32C)[C@@]1(C)CC=O` [β-epoxycallicarpenal], the “biting deterrent efficacy (in words)” value (Aedes aegypti [1]; Example 3, Table 8) is reported as “equivalent to callicarpenal” and the “Proportion Not Biting” value (Aedes aegypti [1]; [8]) is reported as 0.70^b.

With α-epoxycallicarpenal the “biting deterrent efficacy (in words)” value (Aedes aegypti [1]; Example 3, Table 8) was “equivalent to callicarpenal” and the “Proportion Not Biting” value (Aedes aegypti [1]; [8]) was 0.68^b.
